In patent US4935509A (priority 1989, dated 1990):
Where two headings read alike, the source gives them in different places.

Tests used:
P388 wild-type cells = assay: MTT cell count (ID50), P388 wild-type leukemia cells in vitro; assay type: cell-based, murine; details: Mus musculus, read-out: ID50 P388/Wild
Experimental: (§1) In the various assays set forth below the colorimetric determination of the number of cells was carried out by the following procedure using MTT.
(§2) 3-(4,5-dimethylthiazol-2-yl)-2,5-dipenyl tetrazolium bromide (MTT) was prepared as a 5 mg/ml stock solution in phosphate buffered saline, filtered through a 0.22 μm filter and stored for up to two weeks at 4° C. while protected from light. For use in the assay it was diluted to 1 mg/ml in a pH 7.2 solution of phenol-red-free RPMI 1640 tissue culture medium supplemented with 1 mM sodium pyruvate and 50 μg/ml gentamycin. The assay was done in flat bottomed 96-well microtiter plates. Culture medium was removed from the wells by inverting and blotting the plate, fifty μl of MTT solution was added to the cells in each well, and each plate was incubated at 37° C. in an atmosphere of 5% CO2 in air. After incubation, each plate was centrifuged for 5 minutes at 8000×g and excess MTT removed by inverting and blotting. Fifty μl of 95% ethanol was added to each well and the plate was shaken (speed 6.5 for 15 minutes) to solubilize the formazan in each well. The optical density of each well was measured using an automatic plate reader with a test wavelength of 570 nm and a reference wavelength of 630 nm.
(§3) The differential in vitro activity of the above compounds as compared to vincristine and vinblastine with regard to P388 wild-type and P388 multiple-drug resistant leukemia was carried out by the following procedure.
(§4) Tissue culture-adapted lines of the P388 wild-type and P388 multiple-drug resistant cells (principally resistant to adriamycin) were obtained from the American Type Culture Collection, Rockville, MD. Experiments were conducted in 96-well microtiter plates with 300 cells from either line seeded in a volume of 200 μl of tissue culture medium (RPMI 1640 supplemented to 10% (v/v) with heat-inactivated fetal bovine serum (FBS) and to […] with 1-glutamine). Cells and varying log^10 dilutions of test compound were added to triplicate sets of wells on the same day and cultures were incubated for 5 days at 37° C. in a humidified atmosphere of 5% CO2 in air. The number of cells per well at the end of the experiment was determined colorimetrically by the reduction of MTT as described above.

OM-1 = assay: MTT cell count (ID50), human colon cancer cell line OM-1; assay type: cell-based; details: 144 h, read-out: ID50 OM-1
Experimental: as §1, §2
(§5) The in vitro effects of the novel compounds as compared to vinblastine and vincristine on three human colon cancer cell lines and one non-transformedhuman cell line were determined by the following procedure.
(§6) The non-transformed human fibroblast cell line, WI-38 and two of the human colon cancer cell lines, COLO-320-DM and HT-29, were obtained from the American Type Culture Collection, Rockville, MD and the third human colon cancer cell line, OM-1, was supplied by E. I. du Pont de Nemours and Co., Inc., Glenholden, PA. Both OM-1 and COLO-320-DM cells were maintained by serial passage in RPMI 1640 tissue culture medium supplemented to 10% (v/v) with heat-inactivated FBS. HT-29 cells were similarly maintained in McCoys 5A tissue culture medium supplemented with 10% heat-inactivated FBS. COLO-320-DM cells were detached by gentle scraping while HT-29 and OM-1 cells were detached using 0.25% trypsin and 0.05% trypsin, 0.5 mM EDTA solutions respectively. All cultures were incubated at 37° C. in a humidified environment of 5% CO2 in air. Experiments were conducted in 96-well flat-bottomed plates. The initial cell seeds per well for each cell line were 4,000 for WI- 38; 2,000 for COLO-320-DM; 750 for HT-29; and 3,000 for OM-1, each in the appropriate tissue culture medium. Cells were plated 24 hours before test compound was added to allow cells to recover from the effects of physical scraping and trypsinization. Varying log10 dilutions of drug were added to triplicate sets of wells and cultures were incubated for 6 days at 37° in a humidified atmosphere of 5% CO2 in air. The number of cells per well at the end of the experiment was determined colorimetrically by the reduction of MTT as described above and the results for each compounds shown in Table II. For purposes of comparison, the concentration of each test compound required to reduce the final cell number to one-half of the number in drug-free control cultures (ID50) is shown in Table II.

[1] = tested on: P388 multiple-drug resistant cells; assay: cells; assay type: cell-based, murine; details: for Fold-resistance: ID50 resistant cell line divided by ID50 wildtype cell line, 7200 min; for IC50: Mus musculus, read-out: ID50 P3/88/resist.
Experimental: as §1, §2, §3, §4

WI-38 fibroblast = assay: MTT cell count (ID50), non-transformed human fibroblast cell line WI-38; assay type: cell-based; design: unit not given here; details: 6 days incubation
Experimental: as §1, §2, §5, §6

P388 leukemia [2] = assay: In vivo effect against P388 leukemia in mice (TD50, ED50, T.I.); details: for T.I. (therapeutic index): calculated from TD50 and ED50; for ED50: Mus musculus, P388, ip; for cured tumor-bearing mice at doses which were not toxic: P388 leukemia mice, non-toxic doses
Excerpt: (§7) The in vivo effect of the novel compounds of this invention against P388 leukemia as compared to vinblastine and vincristine, were compared by the following procedure.
(§8) P388 murine leukemia cells were obtained from Southern Research Institute, Birmingham, Ala., and were maintained by serial i.p. passage in C57BL/6 mice. Female (C57BL/6×DBA/2) F1 (BDF) mice of 6-8 weeks of age from Jackson Laboratories, Bar Harbor, Maine, received 1×10^6 P388 cells by i.p. inoculation on day 0. Compounds were dissolved in saline and administered i.p. to 10 tumor-bearing mice per dose level on days 0-4 and 7-9 using 5 to 10 log2 dilutions from a concentration known to be toxic. […] The therapeutic index (T.I.) for each compound was calculated by the formula: [formula]

[3] = as above; details: mouse, in vivo, ip
Excerpt: as §7, §8

HT-29 = assay: MTT cell count (ID50), human colon cancer cell line HT-29; assay type: cell-based; details: HT-29, 144 h, read-out: ID50 HT-29
Experimental: as §1, §2, §5, §6

P388 leukemia [4] = assay: Increase in mean survival time of mice bearing P388 leukemia; assay type: in vivo; details: i.p.; for Increase in MST: vs vehicle
Experimental: The efficacy of the remaining compounds is clearly documented by the fact that each increased the mean survival time of tumor-bearing mice in a dose-dependentmanner. […] The percent increase in mean survival time (MST) which appears in Table IV was calculated by the following formula: [formula]

COLO-320-DM = assay: MTT cell count (ID50), human colon cancer cell line COLO-320-DM; assay type: cell-based; details: 144 h, read-out: ID50 COLO-320
Experimental: as §1, §2, §5, §6

[5] = read-out: ED50 (extrapolated values)
[6] = 120 h, P388 wild-type, 5 days incubation, MTT
[7] = 120 h, P388 multiple-drug-resistant (principally adriamycin), 5 days incubation, MTT

Structure (SMILES) | IC50 (P388 wild-type cells; P388, 120 h) [nM] | IC50 (OM-1) [nM] | Fold-resistance [1] | IC50 ([1]; P388, 120 h) [nM] | ID50 WI-38 fibroblast (WI-38 fibroblast) | T.I. (therapeutic index) (P388 leukemia [2]) | LD50 [3] [mg/kg] | IC50 (HT-29) [nM] | IC50 (COLO-320-DM) [nM] | ED50 (P388 leukemia [2]) [mg/kg] | also measured
CC[C@]12C=CCN3CC[C@@]4(c5cc([C@@]6(C(=O)OC)C[C@H]7CN(CCc8c6[nH]c6ccccc86)Cc6ccccc67)c(OC)cc5N(C)[C@H]4[C@@](O)(C(=O)OC)[C@@H]1OC(C)=O)[C@@H]32 [A, (9R,11S)-15-[1,2,4,9,10,11,12,17-octahydro-11-(methoxycarbonyl)-indolo(2',3':6,7)azonino(1,2,3-bc)isoquinolin-11-yl]vindoline] | 95 | 400 | 4 | 400 | 4 × 10^-7 | < 1 | 0.28 | 30 | 400 |  | Mean Survival Time (P388 leukemia [4]; 0.12 mg/kg (optimal dose), vehicle 9.6 days (A), 10.1 days (E)): 19.7 days; Increase in MST (P388 leukemia [4]; 0.12 mg/kg (optimal dose)): 105%
CC[C@]12C=CCN3CC[C@@]4(c5cc([C@@]6(C(=O)OC)C[C@H]7CN(CCc8c6[nH]c6ccccc86)C[C@H]6CCCC[C@H]67)c(OC)cc5N(C)[C@H]4[C@@](O)(C(=O)OC)[C@@H]1OC(C)=O)[C@@H]32 [C, (4aS,8aR,9R,11S)-15-[1,2,4,4a,5,6,7,8,8a,9,10,11,12,17-tetradecahydro-11-(methoxycarbonyl)-indolo(2',3':6,7,)azonino(1,2,3-bc)isoquinolin-11-yl]vindoline] | 220 | 400 | 4 | 850 | 5 × 10^-7 | 1.0 | 0.1 | 300 | 400 |  | ED50 (P388 leukemia [2]; [5]): 0.1 mg/kg; Mean Survival Time (P388 leukemia [4]; 0.06 mg/kg (optimal dose), vehicle 10.1 days): 21.1 days; Increase in MST (P388 leukemia [4]; 0.06 mg/kg (optimal dose)): 109%
CC[C@]12C=CCN3CC[C@@]4(c5cc([C@@]6(C(=O)OC)C[C@H]7CN(CCc8c6[nH]c6ccccc86)Cc6ccccc67)c(OC)cc5N(C=O)[C@H]4[C@@](O)(C(=O)OC)[C@@H]1OC(C)=O)[C@@H]32 [Compound B, (9R,11S)-15-[1,2,4,9,10,11,12,17-octahydro-11-(methoxycarbonyl)-indolo(2',3':6,7)azonino(1,2,3-bc)isoquinolin-11-yl]N-demethyl-N-formylvindoline] | 47 | 60 | 11 | 510 | 1 × 10^-7 | 4.6 | 0.092 | 20 | 300 | 0.02 | cured tumor-bearing mice at doses which were not toxic (P388 leukemia [2]): 50%
CC[C@]12C=CCN3CC[C@@]4(c5cc([C@@]6(C(=O)OC)C[C@H]7CN(CCc8c6[nH]c6ccccc86)C[C@@H]6CCCC[C@H]76)c(OC)cc5N(C=O)[C@H]4[C@@](O)(C(=O)OC)[C@@H]1OC(C)=O)[C@@H]32 [Compound F, (4aR,8aS,9R,11S)-15-[1,2,4,4a,5,6,7,8,8a,9,10,11,12,17-tetradecahydro-11-(methoxycarbonyl)-indolo(2',3':6,7,)azonino(1,2,3-bc)isoquinolin-11-yl]N-demethyl-N-formylvindoline] | 38 | 20 | 12 | 450 | 1 × 10^-7 | 2.8 | 0.045 | 30 | 400 | 0.016 | cured tumor-bearing mice at doses which were not toxic (P388 leukemia [2]): 50%
CC[C@]12C=CCN3CC[C@@]4(c5cc([C@@]6(C(=O)OC)C[C@H]7CN(CCc8c6[nH]c6ccccc86)C[C@H]6CCCC[C@H]67)c(OC)cc5N(C=O)[C@H]4[C@@](O)(C(=O)OC)[C@@H]1OC(C)=O)[C@@H]32 [D, (4aS,8aR,9R,11S)-15-[1,2,4,4a,5,6,7,8,8a,9,10,11,12,17-tetradecahydro-11-(methoxycarbonyl)-indolo(2',3':6,7,)azonino(1,2,3-bc)isoquinolin-11-yl]N-demethyl-N-formylvindoline] | 55 | 60 | 36 | 2000 | 4 × 10^-7 | 1.1 | 0.045 | 40 | 400 |  | ED50 (P388 leukemia [2]; [5]): 0.043 mg/kg; Mean Survival Time (P388 leukemia [4]; 0.015 mg/kg (optimal dose), vehicle 10.7 days): 26.5 days; Increase in MST (P388 leukemia [4]; 0.015 mg/kg (optimal dose)): 148%
CC[C@]1(O)C[C@@H]2CN(CCc3c([nH]c4ccccc34)[C@@](C(=O)OC)(c3cc4c(cc3OC)N(C)[C@H]3[C@@](O)(C(=O)OC)[C@H](OC(C)=O)[C@]5(CC)C=CCN6CC[C@]43[C@@H]65)C2)C1 [Vinblastine, reference compound] |  |  | 16 |  | 5 × 10^-8 | 1.9 | 0.79 |  |  | 0.41 | IC50 (P388 wild-type cells; [6]): 19 nM; IC50 (OM-1; 6 days incubation, MTT): 50 nM; IC50 [1, 7]: 310 nM; IC50 (HT-29; 6 days incubation, MTT): 30 nM; IC50 (COLO-320-DM; 6 days incubation, MTT): 50 nM
CC[C@]1(O)C[C@H]2CN(CCc3c([nH]c4ccccc34)[C@@](C(=O)OC)(c3cc4c(cc3OC)N(C=O)[C@H]3[C@@](O)(C(=O)OC)[C@H](OC(C)=O)[C@]5(CC)C=CCN6CC[C@]43[C@@H]65)C2)C1 [Vincristine, reference compound] |  |  | 57 |  | 7 × 10^-8 | 5.9 | 1 |  |  | 0.17 | IC50 (P388 wild-type cells; [6]): 7.2 nM; IC50 (OM-1; 6 days incubation, MTT): 50 nM; IC50 [1, 7]: 410 nM; IC50 (HT-29; 6 days incubation, MTT): 30 nM; IC50 (COLO-320-DM; 6 days incubation, MTT): 400 nM
